# Measured values taken from patent US20060229358A1, “Pharmaceutical composition containing flavonoids” (Taipei Medical University, priority 2005, published 2006).
# Test system: PDE1
# Assay: Inhibition of cyclic nucleotide PDE activity (Assay I), PDE1
# Assay type: biochemical, guinea pig
# Settings: mean ± S.E.M. (n); read-out: IC50 on phosphodiesterase isozyme 1
# Protocol: Under a protocol approved by the Animal Care and Use Committee of Taipei Medical University, five male guinea pigs (Hartley), weighing 500-600 g, were sacrificed. The lungs (15 g) or hearts (4 g) taken therefrom were chopped into small pieces and homogenized with a glass/teflon homogenizer (Glas-Col, Terre Haute, Ind., USA) in 10 volumes of cold medium (pH 6.5) containing 20 mM Bis-Tris, 2 mM benzamidine, 2 mM EDTA, 50 mM sodium chloride, 0.1 mM phenylmethanesulfonyl fluoride (PMSF), and 1 mM dithiothreitol. At 4° C., the homogenate was centrifuged at 170 g for 15 min, and the supernatant thereof was then re-centrifuged at 40,000 g for 30 min. The final supernatant fraction was filtered through the 0.22 μm filter and applied to a Q-sepharose fast flow column (2.2×28 cm), which is pre-washed and pre-equilibrated in homogenization buffer. The column was washed with two bed volumes of homogenate buffer to remove unbound material, where the resin beads therein will bind with proteins, such as PDE proteins. Proteins bound to the Q-sepharose beads were eluted with various concentrations (0.23, 0.34, 0.44, 0.69, and 1.00 M) of NaCl dissolved in homogenate buffer (for each concentration, 40-50 mL elution buffer were applied) at a flow rate of 30 ml/h. Fractions (3 ml each) were collected, and ethylene glycol (EG) was added thereto until a final concentration of 30% (v/v). And then the samples were frozen at −70° C. Under these conditions, the enzyme activity was stable for at least 3 months.
# In order to eliminate possible contamination of PDE5 by PDE1, the above-collected fractions with enzyme activity was further purified on a calmodulin-agarose column. The column (1.6 cm×4 cm) was pre-equilibrated by a buffer A, which contains 20 mM Bis-tris, 1 mM dithiothreitol, 2 mM benzamidine, 50 mM NaCl, 3 mMMgCl2, 0.1 mM CaCl2, and 0.1 mM PMSF, pH 6.5. The sample (the mixture of PDE5 and PDE1), being purified by the above-mentioned column, with the CaCl2 concentration thereof adjusted to at least 2 mM previously, was loaded and allowed to be absorbed on the gel for 30 min. Then, the PDE isozymes were eluted by stepwise elution using 20 ml of buffer A with 1 M NaCl followed by 20 ml of buffer A with 1 M NaCl and with 1 mM EGTA. PDE5 was collected first followed by PDE1.
# The activities of PDE1-5 in the homogenate were measured with a two-step procedure according to the method of Thompson and Appleman, using cAMP with [^3H]-cAMP or cGMP with [^3 H]-cGMP as substrates. The PDE enzyme prepared (25 μl) with 10 μl inhibitor or the solvents therefor was incubated for 30 min at 37° C. in a total assay buffer, where the final volume of the assay is amounted to 100 μl. In accordance with the features of the PDE isozymes, the assay buffer contains 50 mM Tris/HCl (pH 7.4), 3 mM MgCl2, 1 mM dithiothreitol, and 0.05% BSA, and optionally contains 1 uM cAMP with 0.2 μCi [^3H]-cAMP as a substrate alone or in the presence of 0.1 unit calmodulin with 10 μM CaCl2, or 5 μM cGMP, and 1 μM cGMP with 0.2 μCi [^3H]-cGMP as another substrate alone or in the presence of 0.1 unit calmodulin with 10 μM CaCl2. In assay of enzyme inhibition, the assay mixture contained with the inhibitors at various concentrations of flavonoids in the Table 1 or the selective PDE1-5 inhibitors as reference drugs. For example, the selective PDE1-5 inhibitors are vinpocetin [30], EHNA [31], milrinone, Ro 20-1724 [33], and zaprinast, respectively.
# The PDE enzyme and the inhibitors (or their solvent) therefor were mixed and incubated on ice for 30 min previously, and then mixed with the assay buffer. The assay was initiated by transferring the mixture to a water bath at 37° C. Following the other 30 min incubation, the reaction was stopped by transferring the reaction vessel to a bath of boiling water for 3 min. After cooling on ice, 20 μl of the 1 mg/ml of Crotalus atrox venom was added to the reaction mixture, and the mixture was incubated at 37° C. for 10 min. […]
row,Structure (SMILES),IC50
1,COc1ccc(C2CC(=O)c3c(O)cc(O)cc3O2)cc1O (stereo not drawn) [Hesperetin],> 100 µM
2,O=c1cc(-c2ccccc2)oc2cc(O)cc(O)c12 [Chrysin],> 100 µM
3,O=c1c(-c2ccc(O)cc2)coc2cc(O)cc(O)c12 [Genistein],16.8 ± 2.3 µM
4,O=c1c(-c2ccc(O)cc2)coc2cc(O)ccc12 [Daidzein],> 100 µM
5,COc1cc(O)c2c(=O)c(-c3ccc(O)cc3)coc2c1 [Prunetin],> 100 µM
6,O=c1c(O)c(-c2cc(O)c(O)c(O)c2)oc2cc(O)cc(O)c12 [Myricetin],24.9 ± 3.6 µM
7,COc1ccc(-c2coc3cc(O)cc(O)c3c2=O)cc1 [Biochanin A],29.1 ± 0.3 µM
8,O=c1cc(-c2ccc(O)c(O)c2)oc2cc(O[C@@H]3O[C@H](CO)[C@@H](O)[C@H](O)[C@H]3O)cc(O)c12 [Luteolin-7-glucoside],> 100 µM
9,O=c1c(O)c(-c2ccc(O)c(O)c2)oc2cc(O)cc(O)c12 [Quercetin],27.8 ± 5.7 µM
10,O=c1cc(-c2ccc(O)c(O)c2)oc2cc(O)cc(O)c12 [Luteolin],21.5 ± 2.9 µM
11,O=c1cc(-c2ccc(O)cc2)oc2cc(O)cc(O)c12 [Apigenin],25.4 ± 3.7 µM
12,O=C1CC(c2ccc(O)c(O)c2)Oc2cc(O)cc(O)c21 (stereo not drawn) [Eriodictyol],> 100 µM
